Experimental data taken from patent US5665586A, “Protease from Streptomyces fradiae” (Shionogi & Co., Ltd., priority 1992, dated 1997).
Like-named read-outs stand apart in the source and are kept apart here. Where a SMILES comes first, the peptide text is derived from it. The star is where a group is joined. pNA = O=[N+]([O-])c1ccc(N*)cc1; Cbz = O=C(OCc1ccccc1)*; Boc = CC(C)(C)OC(=O)*; CH2Cl = ClC*

Tests used:
SFase [1] = biological target: T1, SFase (Streptomyces fradiae, UniProt Q03424); assay: Effect of inhibitors on SFase (residual activity, substrate Z-Phe-Leu-Glu-pNA); format: biochemical
SFase [2] = biological target: T1, SFase; assay: Substrate specificity of SFase on synthetic pNA substrates (p-nitroaniline release, A410 nm); format: biochemical; settings: 50 mM Tris-HCl, 2 mM CaCl2, pH 7.5, 25° C.
Method: 1. […] The present enzyme was added thereto to cause a reaction at a temperature of 25° C. By measuring the absorbance (410 nm) of p-nitroaniline released through the enzymatic reaction into the reaction solution, the amount (A410 nm) of p-nitroaniline released per mg each substrate per 1 minute was calculated.

[3] = inhibitor 0.5 mM, preincubation 37° C., 1 hour, enzyme 1.0 μg/ml, 0.2 mM Z-Phe-Leu-Glu-pNA, pH 7.5, 25° C., read-out: Residual Activity (%)
[4] = pH 7.5, read-out: Residual Activity (%)

T1 sequence (Q03424 171-357): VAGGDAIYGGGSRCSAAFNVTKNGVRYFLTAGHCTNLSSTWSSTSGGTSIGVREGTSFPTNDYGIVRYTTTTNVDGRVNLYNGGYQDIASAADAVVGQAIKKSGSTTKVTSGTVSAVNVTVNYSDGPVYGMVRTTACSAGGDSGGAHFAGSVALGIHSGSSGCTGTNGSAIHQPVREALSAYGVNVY

With `C[C@H](NC(=O)[C@H](C)NC(=O)[C@H](C)NC(=O)OC(C)(C)C)C(=O)CCl` [Boc--Ala--Ala--Ala--CK] the remaining activity at 500 µM (SFase [1]; [3]) was 102%.

`C[C@H](NC(=O)OC(C)(C)C)C(=O)N[C@@H](C)C(=O)N[C@@H](CC(=O)O)C(=O)Nc1ccc([N+](=O)[O-])cc1` [Boc--Ala--Ala--Asp--pNA] (Boc-Ala-Ala-Asp-pNA) was tested, and the “amount (A410 nm) of p-nitroaniline released per mg per 1 minute” value (SFase [2]; substrate 0.20 mM, DMF 2.0%) was 14.3 A 410 nm /mg/min.

For `C[C@H](NC(=O)OC(C)(C)C)C(=O)N[C@@H](C)C(=O)N[C@@H](CCC(=O)O)C(=O)Nc1ccc([N+](=O)[O-])cc1` [Boc--Ala--Ala--Glu--pNA] (Boc-Ala-Ala-Glu-pNA), the “amount (A410 nm) of p-nitroaniline released per mg per 1 minute” value (SFase [2]; substrate 0.20 mM, DMF 2.0%) was 126.2 A 410 nm /mg/min.

In the case of `CC(C)C[C@H](NC(=O)[C@H](Cc1ccccc1)NC(=O)OC(C)(C)C)C(=O)N[C@@H](CCC(=O)O)C(=O)CCl` [Boc-Phe-Leu-Glu-chloromethylketone] (Boc-Phe-Leu-Glu-CH2Cl), the “inhibition of SFase (in words)” value (SFase [1]; Table 2) is reported as “completely inhibited”.

In the case of `N=C(N)NCCC[C@H](NC(=O)c1ccccc1)C(=O)Nc1ccc([N+](=O)[O-])cc1` [Bz--Arg--pNA], the “amount (A410 nm) of p-nitroaniline released per mg per 1 minute” value (SFase [2]; substrate 0.50 mM, DMSO 1.0%) is reported as 0 A 410 nm /mg/min.

With `O=C(N[C@@H](Cc1ccc(O)cc1)C(=O)Nc1ccc([N+](=O)[O-])cc1)c1ccccc1` [Bz--Tyr--pNA] the “amount (A410 nm) of p-nitroaniline released per mg per 1 minute” value (SFase [2]; substrate 0.02 mM, DMF 2.0%) was 0 A 410 nm /mg/min.

In the case of `O=C(O)CN(CCN(CC(=O)O)CC(=O)O)CC(=O)O` [EDTA, ethylenediaminetetraacetic acid], the “inhibition of SFase (in words)” value (SFase [1]) is reported as “not inhibited”, the remaining activity at 100 µM (SFase [1]; [4]) is reported as 110% and the remaining activity at 1000 µM (SFase [1]; [4]) is reported as 113%. It also gave a remaining activity at 10000 µM (SFase [1]; [4]) of 126%.

With `CC(C)C[C@H](N)C(=O)Nc1ccc([N+](=O)[O-])cc1` [Leu--pNA] the “amount (A410 nm) of p-nitroaniline released per mg per 1 minute” value (SFase [2]; substrate 2.00 mM, no solvent) was 0 A 410 nm /mg/min.

For `c1cnc2c(c1)ccc1cccnc12` [OP, o-phenanthroline], the “inhibition of SFase (in words)” value (SFase [1]; Table 2) was “not inhibited”, the remaining activity at 100 µM (SFase [1]; inhibitor 0.1 mM, preincubation 37° C., 1 hour, enzyme 1.0 μg/ml, 0.2 mM Z-Phe-Leu-Glu-pNA, pH 7.5, 25° C., read-out: Residual Activity (%)) was 106% and the remaining activity at 1000 µM (SFase [1]; inhibitor 1.0 mM, preincubation 37° C., 1 hour, enzyme 1.0 μg/ml, 0.2 mM Z-Phe-Leu-Glu-pNA, pH 7.5, 25° C., read-out: Residual Activity (%)) was 108%. It also gave a remaining activity at 10000 µM (SFase [1]; inhibitor 10.0 mM, preincubation 37° C., 1 hour, enzyme 1.0 μg/ml, 0.2 mM Z-Phe-Leu-Glu-pNA, pH 7.5, 25° C., read-out: Residual Activity (%)) of 104%.

`C[C@H](NC(=O)CCC(=O)O)C(=O)N[C@@H](C)C(=O)N[C@@H](C)C(=O)Nc1ccc([N+](=O)[O-])cc1` [Suc--Ala--Ala--Ala--pNA] was tested, and the “amount (A410 nm) of p-nitroaniline released per mg per 1 minute” value (SFase [2]; substrate 0.20 mM, no solvent) was 0 A 410 nm /mg/min.

For `Cc1ccc(S(=O)(=O)N[C@@H](CCCCN)C(=O)CCl)cc1` [TLCK, Tosyl-Lys-chloromethylketone], the “inhibition of SFase (in words)” value (SFase [1]) was “inhibited by neither” and the remaining activity at 500 µM (SFase [1]; [4]) was 112%.

`Cc1ccc(S(=O)(=O)N[C@@H](Cc2ccccc2)C(=O)CCl)cc1` [TPCK, Tosyl-Phe-chloromethylketone] was tested, and the “inhibition of SFase (in words)” value (SFase [1]; Table 2) was “inhibited by neither” and the remaining activity at 500 µM (SFase [1]; [3]) was 101%.

`CC(C)C[C@H](NC(=O)[C@H](C)NC(=O)[C@H](C)NC(=O)OCc1ccccc1)C(=O)Nc1ccc([N+](=O)[O-])cc1` [Z--Ala--Ala--Leu--pNA] (Cbz-Ala-Ala-Leu-pNA) was tested, and the “amount (A410 nm) of p-nitroaniline released per mg per 1 minute” value (SFase [2]; substrate 0.125 mM, DMF 5.0%) was 0 A 410 nm /mg/min.

`O=C(CNC(=O)OCc1ccccc1)N[C@@H](CO)C(=O)Nc1ccc([N+](=O)[O-])cc1` [Z--Gly--Ser--pNA] (Cbz-Gly-Ser-pNA) was tested, and the “amount (A410 nm) of p-nitroaniline released per mg per 1 minute” value (SFase [2]; substrate 0.20 mM, DMF 2.0%) was 0 A 410 nm /mg/min.

Work on `CC(C)C[C@H](NC(=O)[C@H](Cc1ccccc1)NC(=O)OCc1ccccc1)C(=O)N[C@@H](CCC(=O)O)C(=O)CCl` [Z--Phe--Leu--Glu--CK] (Cbz-Phe-Leu-Glu-CH2Cl) yielded a remaining activity at 500 µM (SFase [1]; [3]) of 0%.

In the case of `CC(C)C[C@H](NC(=O)[C@H](Cc1ccccc1)NC(=O)OCc1ccccc1)C(=O)N[C@@H](CCC(=O)O)C(=O)Nc1ccc([N+](=O)[O-])cc1` [Z--Phe--Leu--Glu--pNA, Z-Phe-Leu-Glu-pNA] (Cbz-Phe-Leu-Glu-pNA), the “amount (A410 nm) of p-nitroaniline released per mg per 1 minute” value (SFase [2]; substrate 0.20 mM, DMF 0.2%) is reported as 319.1 A 410 nm /mg/min.

With `O=C(N[C@@H](Cc1c[nH]c2ccccc12)C(=O)Nc1ccc([N+](=O)[O-])cc1)OCc1ccccc1` [Z--Trp--pNA] the “amount (A410 nm) of p-nitroaniline released per mg per 1 minute” value (SFase [2]; substrate 0.20 mM, DMF 2.0%) was 0 A 410 nm /mg/min.
